Tests used:
clinical = settings: human, in vivo, 300 mg
Description: This study included nine patients in a three-sequence regimen altering fed state and formulation.
Aside from differences in a few selected time points, PK data collection procedures and analyses are similar to example 2.

plasma 24HC [1] = test: Single dose pharmacodynamics: plasma 24HC; assay type: in vivo, human
Description: The concentration of 24HC was measured by obtaining an 8 ml blood sample collected 30 minutes pre-dose time and 0.5, 1, 2, 4, 6, 8, 12, and 16 hours prior to dosing day, and then 30 minutes pre-dose time and at times 0.5, 1, 2, 4, 6, 8, 12, 16, 24, 48, 72, and 96 hours post-dose. Plasma 24HC levels were measured by incubating plasma in sodium hydroxide and methanol and then performing liquid-liquid extraction and HPLC-MS/MS multiple reaction monitoring. […] Assay quality control measures, parameter analyses, and statistical analyses were performed as described in example 3. […] All dosage groups returned to 24HC baseline values by 96 hours.

[2] = Multiple rising dose study: PK of soticlestat and M-I (day 1, day 14), oral solution; assay type: in vivo, human; settings: for AUC24 mean / AUC∞, mean / Cmax, mean / Tmax, median: soticlestat plasma; for CLR, mean: soticlestat urine
Description: The second trial was a phase I, randomized, double-blind, placebo-controlled study, with soticlestat administered by oral solution at multiple escalating doses in healthy subjects. The criteria for subject inclusion and exclusion are similar to those of the first trial described above but with the added screening of female subjects for pregnancy. […] After a cohort finished their dosage regimen, a decision was made whether to escalate the dosage for the next cohort. Cohorts 1, 2, and 3 received 100, 300, and 400 mg once daily (QD), respectively, and cohorts 4 and 5 received 300 mg twice daily (BID) or 600 mg QD. The regimen for cohorts 4 and 5 were discontinued after subjects began experiencing adverse neurological and psychiatric events. Example 6 describes the PK protocol and the results.
The blood sampling protocol included obtaining a 4-ml blood sample for PK analysis 30 minutes pre-dose, and at 10, 15, 20, and 30 minutes and 1, 1.5, 2, 3, 4, 6, 8, 10, 12, 16, and 24 hours post-dose on days 1 and 14. Cohort 3, receiving 400 mg QD, had additional blood samples taken on day 7 at 15 and 30 minutes, and 1, 2, 4, and 8 hours post-dose. […] The median time for Cmax (Tmax) across the dose range varied between 0.33-0.5 hours. […] The 24 hour plasma area under the concentration-time curve (AUC24) for doses 100, 300, and 400 mg at day 14 were 458, 2690, and 2800 ng×h/mL, respectively. The concentration time profiles were similar from day 1 through day 14.
This study administered soticlestat to healthy male and female adults in an oral solution at escalating daily dose levels. […] Eight subjects were randomly assigned to one of five cohorts, with two subjects in each cohort receiving a placebo. Single daily dosing occurred in the morning after a minimum fast of 8 hours and subjects continued fasting until 2 hours post-dose. […] After a full review of the safety data from cohorts 1 and 2, including vitals, physical examination, BMI, adverse events, and clinical laboratory tests, […] were approved to receive increased dosages of 300 mg twice daily (BID) and 600 mg once daily (QD), respectively.
All cohorts had additional blood samples taken 30 minutes pre-dose on days 7, 11, 12, and 13. […] had additional blood samples taken for PK data on day 7 at post-dose times 15 and 30 minutes, and 1, 2, 4, and 8 hours. The PK parameter analysis was performed as described in example 2. […] A power model estimated the dose proportionality for Cmax and AUC∞ on day 1 and day 14 for cohorts receiving once daily dosing. An analysis of variance (ANOVA) assessed the variation in time dependency for Cmax and AUC∞ on day 1 and day 14 for cohorts receiving once daily dosing.
Pre-dose urine samples were collected for PK analysis for 12 hours pre-dose of day 1 and for 2 hours pre-dose of day 14. Post-dose urine samples were collected at intervals of 0-6, 6-12, and 12-24 hours.

plasma 24HC [3] = test: Adult DEE patients: pharmacodynamics, plasma 24HC; assay type: in vivo, human; settings: for mean plasma 24HC decrease from baseline: Part A
Description: Blood sample collection and analyses for measuring 24HC was performed as previously described in example 5.

With `O=C(c1cccnc1-c1ccncc1)N1CCC(O)(Cc2ccccc2)CC1` [soticlestat] the “AUC∞ lower, tablet fed than fasting” value (clinical) was 10.6%, the Tmax (clinical) was 31.8 min and the “mean Cmax decrease, tablet fed compared to fasted” value (clinical) was 59.7%. The “AUC∞ lower with tablet compared with oral solution” value (clinical; po) was 15.8%, the “Cmax lower with tablet compared with oral solution” value (clinical; po) was 36.9% and the Tmax (clinical; po) was 21 min. For the same compound, the “maximum 24HC decrease” value (plasma 24HC [1]; 900 mg single dose, 16 hours post-dose) was “approximately 23%”, the “AUEC96 decrease compared to placebo” value (plasma 24HC [1]; single dose) was “approximately 28.7%” and the “accumulated exposure, AUC24 day 14” value ([2]; both, human, in vivo, 300 mg) was roughly 1.42 fold. The “accumulated exposure, Cmax day 14” value ([2]; both, human, in vivo, 300 mg, 14 days) was “approximately 1.74 fold”, the “t½z, mean” value ([2]; both, human, in vivo, 600 mg) was 4.83 h and the “CL/F, mean” value ([2]; human, in vivo, 600 mg) was 194 L/h. The AUC24 mean ([2]; 100 mg QD day 1) was 446 ng·h/mL, the “AUC∞, mean” value ([2]; 100 mg QD day 1) was 451 ng·h/mL and the “Cmax, mean” value ([2]; 100 mg QD day 1) was 468 ng/mL. For the same compound, the “Tmax, median” value ([2]; 100 mg QD day 1) was 25.2 min, the AUC24 mean ([2]; 100 mg QD day 14) was 458 ng·h/mL and the “AUC∞, mean” value ([2]; 100 mg QD day 14) was 509 ng·h/mL. The “Cmax, mean” value ([2]; 100 mg QD day 14) was 481 ng/mL, the “Tmax, median” value ([2]; 100 mg QD day 14) was 25.2 min and the AUC24 mean ([2]; 300 mg BID day 1 (first dose)) was 1460 ng·h/mL. For the same compound, the “AUC∞, mean” value ([2]; 300 mg BID day 1 (first dose)) was 1510 ng·h/mL, the “Cmax, mean” value ([2]; 300 mg BID day 1 (first dose)) was 1330 ng/mL and the “Tmax, median” value ([2]; 300 mg BID day 1 (first dose)) was 26.4 min. The AUC24 mean ([2]; 300 mg QD day 1) was 2030 ng·h/mL, the “AUC∞, mean” value ([2]; 300 mg QD day 1) was 2040 ng·h/mL and the “Cmax, mean” value ([2]; 300 mg QD day 1) was 2020 ng/mL. The “Tmax, median” value ([2]; 300 mg QD day 1) was 25.2 min, the AUC24 mean ([2]; 300 mg QD day 14) was 2690 ng·h/mL and the “AUC∞, mean” value ([2]; 300 mg QD day 14) was 2840 ng·h/mL. For the same compound, the “Cmax, mean” value ([2]; 300 mg QD day 14) was 3100 ng/mL, the “Tmax, median” value ([2]; 300 mg QD day 14) was 19.8 min and the AUC24 mean ([2]; 400 mg QD day 1) was 2500 ng·h/mL. The “AUC∞, mean” value ([2]; 400 mg QD day 1) was 2520 ng·h/mL, the “Cmax, mean” value ([2]; 400 mg QD day 1) was 2630 ng/mL and the “Tmax, median” value ([2]; 400 mg QD day 1) was 19.8 min. The AUC24 mean ([2]; 400 mg QD day 14) was 2800 ng·h/mL, the “AUC∞, mean” value ([2]; 400 mg QD day 14) was 3090 ng·h/mL and the “Cmax, mean” value ([2]; 400 mg QD day 14) was 2930 ng/mL. The “Tmax, median” value ([2]; 400 mg QD day 14) was 19.8 min, the AUC24 mean ([2]; 600 mg QD day 1) was 4180 ng·h/mL and the “AUC∞, mean” value ([2]; 600 mg QD day 1) was 4220 ng·h/mL. For the same compound, the “Cmax, mean” value ([2]; 600 mg QD day 1) was 3060 ng/mL, the “Tmax, median” value ([2]; 600 mg QD day 1) was 30 min and the “CLR, mean” value ([2]; 100 mg QD day 1) was 0.220 L/h. The “CLR, mean” value ([2]; 100 mg QD day 14) was 0.200 L/h, the “CLR, mean” value ([2]; 300 mg BID day 1) was 0.350 L/h and the “CLR, mean” value ([2]; 300 mg QD day 1) was 0.300 L/h. For the same compound, the “CLR, mean” value ([2]; 300 mg QD day 14) was 0.220 L/h, the “CLR, mean” value ([2]; 400 mg QD day 1) was 0.370 L/h and the “CLR, mean” value ([2]; 400 mg QD day 14) was 0.380 L/h. For the same compound, the “CLR, mean” value ([2]; 600 mg QD day 1) was 0.340 L/h, the “mean plasma 24HC decrease from baseline” value (plasma 24HC [3]; day 11) was 69.76% and the “mean plasma 24HC decrease from baseline” value (plasma 24HC [3]; day 21) was 76.88%. For the same compound, the “plasma 24HC mean percent change from baseline” value (“plasma 24HC mean percent change” below) (plasma 24HC [3]; day 11) was −69.76%, the “plasma 24HC mean percent change” value (plasma 24HC [3]; day 21) was −76.88% and the “plasma 24HC mean percent change” value (plasma 24HC [3]; day 85) was −80.97%. For the same compound, the “mean percent decrease of plasma 24HC” value (plasma 24HC [3]; end of Part B (day 85)) was 80.97%.

Reference: US20250213547A1, “METHODS OF TREATING NEUROLOGICAL DISEASES” (priority 2022, published 2025)
